Data as given in patent US20130295017A1, “METHODS FOR SCREENING ANTIBIOTIC COMPOUNDS” (priority 2010, published 2013).

System: S. aureus strain ALC6094
Experiment: Murine model of subcutaneous infection (abscess), IPTG induction of MazFsa
Format: in vivo, Balb/C female mice
Conditions: for Log10 CFU/abscess: sacrifice day 4, n = 9
Description: A murine model of subcutaneous infections (abscess) was used. Such models are well-established as methods to screen for in vivo activity to affect infection processes (Tamber et al. 2010. Infect. Immun. 78:3637-3646).
In the present experiments, a bacterial strain ALC6094, which is a derivative of S. aureus strain Newman was used. This strain contains a chromosomal copy of the T7 polymerase gene and the plasmid pG164::mazFsa, which is a shuttle plasmid with an IPTG-inducible T7 promoter driving MazFsa expression. Mice were challenged with 2×10^7 CFU of bacteria via subcutaneous (s.q.) injection and mixed with 1 mM IPTG immediately before injection. After injection, half of the IPTG-treated animals received two saline injections daily while the remaining half were injected with 1 mM IPTG (s.q.) daily for 2 days. All animals were sacrificed on day 4, including untreated control groups receiving no IPTG. […] Thus, drugs that disrupt the MazEF complex would be novel compounds for use in treating S. aureus bacterial infections.
Balb/C female mice (20-22 grams) were used to assess the utility of disrupting MazEFsa activity in vivo as a potential method for testing for drug efficacy. The mice were infected subcutaneously with 200 μl of 1.5×10^8 CFU/ml of bacteria. The bacterial strain used was ALC6094, which is a derivative of S. aureus strain Newman containing a chromosomal copy of the T7 polymerase gene and the plasmid pG164::mazFsa, which is a shuttle plasmid with an IPTG-inducible T7 promoter driving MazFsa expression. Control mice were infected with the bacteria but received no further injections. Two treatment groups were tested: 1) mice injected with ALC6094 that was mixed with IPTG immediately before injection (1 ml of a 5 mM solution of IPTG); and 2) mice injected with ALC6094 mixed with IPTG and then given daily IPTG injections for two subsequent days. Animal were sacrificed on day 4 after injection. Only mice receiving saline control developed visible abscesses by day 3, while those animals receiving IPTG had visible erythematous injection sites.

In the case of `CC(C)S[C@@H]1O[C@H](CO)[C@H](O)[C@H](O)[C@H]1O` [IPTG], the “Log10 CFU/abscess” value (ALC6094 mixed with IPTG immediately before s.q. injection) is reported as 6.57 ± 0.83 Log10 CFU/abscess, the “Log10 CFU/abscess” value (ALC6094 mixed with IPTG plus daily IPTG injections for two subsequent days) is reported as 6.59 ± 0.95 Log10 CFU/abscess and the “abscess size vs. no IPTG controls” value (mice receiving IPTG induction for MazFsa) is reported as “smaller abscess sizes”.
